Common to all, as to format: physicochemical
Series [1] in a line: Fluorescent emission and excitation spectra of evaporated ink (FP-750). As to conditions: standard excitation wavelength 254 nm. As to the method:
At first, a predetermined amount (in this case, 0.3% by mass with respect to the solution) of C.I. Acid Red 52 (AR52) as the first fluorescent coloring material was dissolved into an aqueous solution (an organic solvent such as glycerin and purified water), followed by heating at 60° C. to completely vaporize water content, resulting in ink (hereinafter, referred to as evaporated ink).
The fluorescent emission spectra and excitation spectra of the first and second fluorescent coloring materials were measured using a fluorometer FP-750 (trade name; manufactured by JASCO Corporation). Each measurement sample was an ink from which water content was evaporated to remove the influence of water on the measurement.

Series [2] can be described thus: Light absorption spectrum of coloring materials. As to the method:
Next, the multiple fluorescent coloring materials will be described more specifically with reference to multiple fluorescence examples and reference examples. Here, measurement values obtained with purified water diluted solutions of coloring materials were used for an absorption wavelength region, a maximum absorption wavelength region, and a fluorescence wavelength region. Using an absorption spectrometer, absorption wavelengths were measured. A diluted solution was prepared in such a manner that the absorbance thereof was in the range of 0.5 to 0.7. A higher region from a base line as the absorption peak of the coloring material was defined as an absorption wavelength region, and the peak value was defined as a maximum absorption wavelength. In addition, for fluorescence wavelengths, the measurement conditions were set so that the fluorescence intensities were not beyond the measurement threshold value. Then, fluorescence wavelengths were measured by using the diluted solution used in the measurement of absorbance and by fixing the excitation wavelengths of the first and second coloring materials at predetermined wavelengths. A region higher than the base line was defined as a fluorescent emission wavelength region.
The absorption wavelength regions of the first and second coloring materials were measured using a spectrophotometer U-3200 (trade name; manufactured by Hitachi Ltd.) after the dye had been diluted 100,000-fold with purified water. The absorption wavelength region of the first coloring material ranged from 450 to 620 nm, and the maximum absorption wavelength thereof was 565 nm. In addition, the absorption wavelength region of the second coloring material ranged from 300 to 450 nm, and the maximum absorption wavelength thereof was 372 nm.

Series [3] can be described thus: Fluorescent coloring material content causing concentration quenching. As to conditions: image printed on a recording material. The procedure:
The following respective components as ink composition to be used were mixed and sufficiently stirred, and the resultant was dissolved and/or dispersed. After that, the resultant was filtered through a Phloropore filter (trade name; manufactured by Sumitomo Electric Industries, Ltd.) having a pore size of 0.1 μm under pressure to prepare each ink. An ink 1, an ink 2, an ink 3, and an ink 5 were defined as inks of Examples and an ink 4 was defined as Reference Example. The content of each fluorescent coloring material in ink for causing the concentration quenching of a fluorescent image printed on a recording material is 0.3% by mass or more for C.I. Acid Red 52, 2.0% by mass or more for C.I. Acid Red 92, or more than 2.0% by mass for the compound (A).
In each of the above ink compositions, the fluorescence intensity of each of the inks 1 to 4 was measured by means of a commercially available fluorescence measuring device […] (trade name; manufactured by JASCO Corporation).

Each structure is given as a SMILES string. Values joined by “and” are separate entries in the source; they are usually repeats but may differ in a detail not shown here. Identical values can stand only once.

`O=C([O-])c1ccccc1-c1c2ccc(=O)cc-2oc2cc([O-])ccc12.[Na+].[Na+]` [C.I. Acid Yellow 73, reference compound]: the “fluorescent emission peak wavelength” value in series [1] amounted to 530 nm. For the same compound, in series [2] (from FIGS. 5, 6, 12), the absorption peak wavelength turned out to be 490 nm and the “absorption spectrum range, visible light” value is ≤ 525 nm.
As for `CCN(CC)c1ccc2c(-c3ccc(S(=O)(=O)[O-])cc3S(=O)(=O)[O-])c3ccc(=[N+](CC)CC)cc-3oc2c1.[Na+]` [C.I. Acid Red 52], in series [1], the “fluorescent emission peak wavelength” value worked out at 600 nm. The “content of fluorescent coloring material in ink causing concentration quenching of a printed fluorescent image” value in series [3] is reported as ≥ 0.3 % by mass. In series [2] (dye diluted 100,000-fold with purified water, spectrophotometer U-3200), this compound registered a maximum absorption wavelength of 565 nm. Besides, the absorption peak wavelength in series [2] (from FIGS. 5, 6, 12, listed as AR52) was 565 nm and ~560 nm.
`O=C([O-])c1c(Cl)c(Cl)c(Cl)c(Cl)c1-c1c2cc(Br)c(=O)c(Br)c-2oc2c(Br)c([O-])c(Br)cc12.[Na+].[Na+]` [C.I. Acid Red 92]: the “content of fluorescent coloring material in ink causing concentration quenching of a printed fluorescent image” value in series [3] is recorded as ≥ 2.0 % by mass.

For the origin of these results see patent publication US7473437B2, “Method of forming fluorescent image, fluorescent image, and ink-jet recording method” (Canon Kabushiki Kaisha, priority 2004, dated 2009).
